Data reported in patent US11168102B1, “Bicyclic heteroaryl compounds and uses thereof” (Revolution Medicines, Inc., priority 2019, dated 2021).

Legend:
[1] = target: SOS1 catalytic domain (residues 564-1049) (Homo sapiens (Human), UniProt Q07889); assay: Potency assay: binding affinity to SOS1 by Surface Plasmon Resonance (SPR); settings: avi-tagged SOS1 catalytic domain immobilized on sensor chip; 1:1 equilibrium binding fit
[2] = test system: cellular pERK in PC-9 cells (EGFR Ex19Del); assay: Potency assay: pERK (AlphaLISA SureFire Ultra p-ERK1/2) in PC-9 cells; type: cell-based; settings: Homo sapiens, PC-9, 1 h, PC-9 cells (EGFR Ex19Del), 1 hour incubation, AlphaLISA SureFire Ultra p-ERK1/2; read-out: SOS1 pERK IC50
[3] = target: SOS1 nucleotide exchange of wild-type KRAS (Homo sapiens (Human), UniProt Q07889); assay: Mode of action assay: inhibition of SOS1 nucleotide exchange activity (TR-FRET); type: biochemical; settings: SOS1 catalytic domain (564-1049), avi-tagged KRAS (1-169), EDA-GTP-DY-647P1; three replicates
Sequence of SOS1 nucleotide exchange of wild-type KRAS (Q07889 564-1049): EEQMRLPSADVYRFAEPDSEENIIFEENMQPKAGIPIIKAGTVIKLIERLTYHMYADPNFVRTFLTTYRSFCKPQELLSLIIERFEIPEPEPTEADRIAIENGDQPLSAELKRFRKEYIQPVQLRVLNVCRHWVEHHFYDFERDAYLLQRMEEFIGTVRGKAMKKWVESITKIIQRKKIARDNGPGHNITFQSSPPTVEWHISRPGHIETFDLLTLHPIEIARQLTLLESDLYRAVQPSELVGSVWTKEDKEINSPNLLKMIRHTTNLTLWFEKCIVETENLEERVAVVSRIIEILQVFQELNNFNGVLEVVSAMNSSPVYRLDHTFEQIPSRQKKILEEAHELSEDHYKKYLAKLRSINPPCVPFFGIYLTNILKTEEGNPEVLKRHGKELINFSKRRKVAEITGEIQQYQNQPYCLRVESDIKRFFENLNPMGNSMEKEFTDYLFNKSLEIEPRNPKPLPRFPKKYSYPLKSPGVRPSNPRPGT

Sequence of SOS1 catalytic domain (residues 564-1049) (Q07889 564-1049): as above

Compound | Kd [1] [nM] | IC50 [2] [nM] | IC50 [3] [nM]
C[C@@H](Nc1ncnc2c1cc(C(=O)N1CCN(C3COC3)CC1)c(=O)n2C)c1cccc(C(F)F)c1F [Example 26-43] | 53.6 | 181 | 37
CC(=O)N1CC=C(c2cc3c(N[C@H](C)c4cccc(C(F)F)c4F)nc(C)nc3n(C)c2=O)CC1 [Example 1-21] | 137 | 173 | 95.6
C[C@@H](Nc1ncnc2c1cc(C1=CCNC1)c(=O)n2C)c1cccc(C(F)F)c1F [Example 1-1] | 59.1 | 140 | 41.5
Cc1nc(N[C@H](C)c2cccc(C(F)F)c2F)c2cc(C3CCOC3)c(=O)n(C)c2n1 (stereo partly shown) [Example 1-29] | 157 | 309 | 129
C[C@@H](Nc1ncnc2c1cc(C(=O)N1CCn3cncc3C1)c(=O)n2C)c1cccc(C(F)F)c1F [Example 26-30] | 260 | 656 | 86.1
C[C@@H](Nc1ncnc2c1cc(C(=O)N1CCCOCC1)c(=O)n2C)c1cccc(C(F)F)c1F [Example 26-9] | 178 | 479 | 122
C[C@@H](Nc1ncnc2c1cc(C1(F)CCS(=O)(=NC3CC3)CC1)c(=O)n2C)c1cccc(C(F)F)c1F (single isomer, unassigned) [Example 57] | 9.19 | 42.6 | 7.65
C[C@@H](Nc1ncnc2c1cc(C(=O)N1CCn3ccnc3C1)c(=O)n2C)c1cccc(C(F)F)c1F [Example 26-31] | 322 | 2820 | 230
C[C@@H](Nc1ncnc2c1cc(C1(F)CCN(C)CC1)c(=O)n2C)c1cccc(C(F)F)c1F [Example 29-3] | 41.6 | 120 | 42.4
C[C@@H](Nc1ncnc2c1cc(C1=CCOCC1)c(=O)n2C)c1cccc(C(F)F)c1F [Example 1-5] | 16.3 | 222 | 32
CC(=O)N1CC=C(c2cc3c(N[C@H](C)c4cccc(C(F)F)c4Cl)ncnc3n(C)c2=O)CC1 [Example 1-23] | 122 | 70.2 | 94
CC(=O)N1CCC=C(c2cc3c(N[C@H](C)c4cccc(C(F)F)c4F)ncnc3n(C)c2=O)C1 [Example 1-14] | 19 | 218 | 53
C[C@@H](Nc1ncnc2c1cc(C(=O)N1CC(F)C1)c(=O)n2C)c1cccc(C(F)F)c1F [Example 26-1] | 285 | 994 | 162
CC(=O)N1CC=C(c2cc3c(N[C@H](C)c4cccc(C(F)F)c4C)ncnc3n(C)c2=O)CC1 [Example 1-11] | 54.6 | 77 | 29.3
C[C@@H](Nc1ncnc2c1cc(C(=O)N1C3CCC1COC3)c(=O)n2C)c1cccc(C(F)F)c1F [Example 26-12] | 158 | 861 | 107
C[C@@H](Nc1ncnc2c1cc(C1=CCNCC1)c(=O)n2C)c1cccc(C(F)(F)F)c1 [Example 1-2] | 13.4 | 114 | 23.8
COC[C@H]1CCCN1C(=O)c1cc2c(N[C@H](C)c3cccc(C(F)F)c3F)ncnc2n(C)c1=O [Example 26-24] | 160 | 794 | 54.1
Cc1nc(N[C@H](C)c2cccc(C(F)F)c2F)c2cc(-c3cccn(CCO)c3=O)c(=O)n(C)c2n1 [Example 21-12] | 216 | 588 | 123
Cc1nc(N[C@H](C)c2cccc(C(F)F)c2F)c2cc(C3=CCS(=O)(=O)CC3)c(=O)n(C)c2n1 [Example 1-25] | 101 | 83.7 | 67.3
CC(=O)N1CCC(F)(c2cc3c(N[C@H](C)c4cccc(C(F)F)c4F)ncnc3n(C)c2=O)CC1 [Example 29-5] | 37.4 | 37.3 | 14.8

Compound | Kd [1] [nM] | IC50 [2] [nM] | IC50 [3] [nM]
Cc1nc(N[C@H](C)c2cccc(C(F)F)c2F)c2cc(C3=CCOC3)c(=O)n(C)c2n1 [Example 1-7] | 353 | 693 | 257
C[C@@H](Nc1ncnc2c1cc(C1CCS(=O)(=O)C1)c(=O)n2C)c1cccc(C(F)F)c1F (stereo partly shown) [Example 33-1] | 486 | 62.1 | 42.7
C[C@@H](Nc1ncnc2c1cc(C(=O)N1CCN(C)c3ncccc31)c(=O)n2C)c1cccc(C(F)F)c1F [Example 26-49] | 311 | 959 | 176
C[C@@H](Nc1ncnc2c1cc(C(=O)N1CCS(=O)(=O)CC1)c(=O)n2C)c1cccc(C(F)F)c1F [Example 26-38] | 235 | 392 | 156
C[C@@H](Nc1ncnc2c1cc(C1CCOCC1)c(=O)n2C)c1cccc(C(F)F)c1F [Example 1-30] | 20.1 | 143 | 45.8
C[C@@H](Nc1ncnc2c1cc(C1=C[C@H]3CNC[C@@H](C1)O3)c(=O)n2C)c1cccc(C(F)F)c1F [Example 1-13] | 13.8 | 195 | 19.3
Cc1nc(N[C@H](C)c2cccc(C(F)F)c2F)c2cc(C3=CCN(C4COC4)CC3)c(=O)n(C)c2n1 [Example 1-26] | 61 | 260 | 26.4
C[C@@H](Nc1ncnc2c1cc(C(=O)N1CC(O)(C(F)(F)F)C1)c(=O)n2C)c1cccc(C(F)F)c1F [Example 26-41] | 420 | 1400 | 170
Cc1nc(N[C@H](C)c2cccc(C(F)F)c2F)c2cc(C3CCN(C)CC3)c(=O)n(C)c2n1 [Example 8-2] | 64.4 | 265 | 21.2
C[C@@H](Nc1ncnc2c1cc(-c1cnc(F)nc1)c(=O)n2C)c1cccc(C(F)F)c1F [Example 21-5] | 115 | – | 126
C[C@@H](Nc1ncnc2c1cc(C1CCS(=O)(=O)CC1)c(=O)n2C)c1cccc(C(F)F)c1F [Example 8-5] | 37.6 | – | 12.8
C[C@@H](Nc1ncnc2c1cc(C1CCN(CC(F)F)CC1)c(=O)n2C)c1cccc(C(F)F)c1F [Example 8-13] | 156 | – | 39.8
CC(=O)N1CCC(c2cc3c(N[C@H](C)c4cccc(C(F)F)c4F)nc(C)nc3n(C)c2=O)CC1 [Example 8-9] | 120 | – | 53.6
Cc1nc(N[C@H](C)c2cccc(C(F)F)c2F)c2cc(C3CCS(=O)(=O)CC3)c(=O)n(C)c2n1 [Example 8-12] | 83.4 | – | 65
C[C@@H](Nc1ncnc2c1cc(-c1cncnc1)c(=O)n2C)c1cccc(C(F)F)c1F [Example 21-2] | 85.4 | – | 42.9
Cc1nc(N[C@H](C)c2cccc(C(F)F)c2F)c2cc(C3CCN(CC(F)(F)F)CC3)c(=O)n(C)c2n1 [Example 8-17] | 796 | – | 708
C[C@@H](Nc1ncnc2c1cc(-c1ccc3nonc3c1)c(=O)n2C)c1cccc(C(F)F)c1F [Example 21-8] | 336 | – | 235
COc1ncccc1-c1cc2c(N[C@H](C)c3cccc(C(F)F)c3F)ncnc2n(C)c1=O [Example 21-7] | 92.5 | – | 47.1
C[C@@H](Nc1ncnc2c1cc(C1CCN(S(C)(=O)=O)CC1)c(=O)n2C)c1cccc(C(F)F)c1F [Example 8-15] | 90.4 | – | 40.1
C[C@@H](Nc1ncnc2c1cc(C1CCN(CC(F)(F)F)CC1)c(=O)n2C)c1cccc(C(F)F)c1F [Example 8-16] | 136 | – | 77.5
